The record followed here is patent US20220389001A1, “ATF6 MODULATORS AND USES THEREOF” (Praxis Biotech LLC, priority 2019, published 2022).

The test system of assay [1] is ATF6. Put plainly: ERSE ATF6-luciferase assay in presence of Tg-induced ER stress (U2-OS ATF6 TRE-luciferase reporter cells). The settings on record: Tg only = 100%; for ATF6 activity @ 1 μM [%] / activity at 1 µM: 1 μM test compound; for ATF6 activity @ 1 μM [%] / ATF6 activity @ 10 μM [%]: 8 hr; for ATF6 activity @ 10 μM [%] / activity at 10 µM: 10 μM test compound; for activity at 1 µM / activity at 10 µM: Homo sapiens, U2OS, 8 h. In kind it is cell-based, Human. The method, then:
(§1) To understand how exemplary compounds of the invention modulate the activity of ATF6 in absence or presence of endoplasmic reticulum (ER) stress, a Human bone osteosarcoma (U2-OS)-based TRE-luciferase reporter stable cell line was generated to determine the modulation of transcription of ATF6 target genes.
(§2) U2-OS cells were obtained from the American Type Culture Collection (ATCC HTB-96, ATCC Manassas, Va.) and were cultured with growing medium containing Dulbecco's Modified Eagle's Medium (DMEM) (Cat. No.: SH30023.02, HyClone) supplemented with fetal bovine serum (FBS) 10% (Cat. No.: 16000044, Gibco) and 1% penicillin-streptomycin antibiotic cocktail (Cat. No.: SV30010, Hyclone).
(§3) Cignal Lenti ATF6 luc reporter (Qiagen #CLS-6031L) was used to produce a stable cell line in U2-OS cells (U2-OS ATF6 TRE-luciferase reporter). The lenti ATF6 reporter is a preparation of replication incompetent, VSV-g pseudotyped lentivirus particles expressing the firefly luciferase gene under the control of a minimal (m)CMV promoter and tandem repeats of the ATF6 transcriptional response element (TRE). The number of response elements as well as the intervening sequence between response elements has been experimentally optimized to maximize the signal to noise ratio.
(§4) Exemplary compounds of the invention and reference compounds were prepared from powder as 10 mM stock solutions in dimethyl sulfoxide (DMSO; Cat. No. #D2650, Sigma Aldrich) and stored at −80° C. in presence of N2 neutral atmosphere.
(§5) For the primary screening, 40,000 U2-OS ATF6 TRE-luciferase reporter cells were plated in poly-D-lysine (Cat. No.: P2636, Sigma) pre-coated white 96-well plates (Thermo Scientific Nunc #136101) with 100 μL of growing medium. Cells were incubated in humidified chambers for 24 hr.
For testing exemplary compounds in presence of ER-stress, cells were pre-treated for 30 min with 50 μL growing medium containing either vehicle (DMSO), 1 or 10 μM test compound. After this pre-incubation, 50 μL of a solution containing 0.2 μM of the ER stress-inducer thapsigargin (Tg) was added to the appropriate wells. The Tg solution also contains vehicle or test compounds at 1 or 10 μM as indicated. The final concentration of DMSO in each well was kept at 0.3%. Plates were incubated for 8 hr in humidified chambers.
After the 8 hr incubation, plates were cooled down to room temperature for 10 min prior to the luciferase assays. Luciferase reactions were performed using Luciferase Assay System (Cat. No.: E4550, Promega). Briefly, each well was washed with 100 μl of PBS 1× and, then, 20 μl of lysis reagent was added into each well. Plates were shaken for 10 min and, then, 50 μl of Luciferase Assay Reagent was added to each well. Luminescence was determined by integration of 1 s with a gain of 110 in a Synergy 4 Microplate reader. All measurements were carried out in triplicate.
The average activity determined from the wells containing vehicle only (DMSO, 0% of ATF6 activity) was used as blank and subtracted from the rest of measurements. The average activity determined from the wells containing Tg only was used as 100% of ATF6 activity. The percentage of modulation of exemplary compounds was calculated by normalizing values to potential maximal activation with Tg.
ATF6 activities of exemplary compounds at 1 and 10 μM in presence Tg-induced ER stress tested in the U2-OS ATF6 TRE-luciferase reporter cells were determined and are shown in Table 2.

In assay [2] the test system is ATF6. The experiment in a line: ERSE ATF6-luciferase assay in absence of ER stress (U2-OS ATF6 TRE-luciferase reporter cells). In kind it is cell-based, Human. The settings on record: 8 hr, normalized to maximal activation with Tg; for ATF6 activity @ 1 μM- No Tg [%]: 1 μM test compound; for ATF6 activity @ 10 μM- No Tg [%]: 10 μM test compound. How it is done:
as §1, §2, §3, §4, §5
For testing exemplary compounds in absence of ER-stress, cells were treated for 8 hr with 100 μL growing medium containing either vehicle (DMSO), 1 or 10 μM test compound or 0.1 μM Tg. The final concentration of DMSO in each well was kept at 0.3%. Plates were incubated in humidified chambers.
After 8 hr of incubation, plates were cooled down to room temperature for 10 min prior to luciferase assays. Luciferase reactions were performed as above. Luminescence was read by integration of 1 s with a gain of 110 in a Synergy 4 Microplate reader. All measurements were carried out in triplicate.
The average activity determined from the wells containing vehicle only (DMSO, 0% of ATF6 activity) was used as blank and subtracted from the rest of measurements. The percentage of modulation of exemplary compound was calculated by normalizing values to potential maximal activation with Tg.
ATF6 activities of exemplary compounds at 1 and 10 μM in absence of Tg-induced ER stress in the U2-OS ATF6 TRE-luciferase reporter cells were determined and are shown in Table 3.

For `CC(c1c(F)cccc1Cl)n1cc(NC(=O)c2cc(-c3ccco3)on2)cn1` (single isomer, unassigned) [Compound 1-14, N-(1-(1-(2-chloro-6-fluorophenyl)ethyl)-1H-pyrazol-4-yl)-5-(furan-2-yl)isoxazole-3-carboxamide], in the assay with ATF6 [1], the “ATF6 activity @ 1 μM [%]” value was “+++ (+++ refers to >150% at 1 or 10 μM test compound)” and the “ATF6 activity @ 10 μM [%]” value is “+++ (+++ refers to >150% at 1 or 10 μM test compound)”. For the same molecule, in the assay on ATF6 [2], the “ATF6 activity @ 1 μM- No Tg [%]” value is “+ (+ refers to 0% < % activity < 25% at 1 or 10 μM test compound)” and the “ATF6 activity @ 10 μM- No Tg [%]” value is given as “+ (+ refers to 0% < % activity < 25% at 1 or 10 μM test compound)”.
`CC(c1c(F)cccc1Cl)n1cc(NC(=O)c2cc(-c3ccco3)on2)cn1` (single isomer, unassigned) [Compound 1-15, N-(1-(1-(2-chloro-6-fluorophenyl)ethyl)-1H-pyrazol-4-yl)-5-(furan-2-yl)isoxazole-3-carboxamide]: in the assay on ATF6 [1], the “ATF6 activity @ 1 μM [%]” value is recorded as “+ (+ refers to 100% < % activity < 125% at 1 or 10 μM)” and the “ATF6 activity @ 10 μM [%]” value is on record as “+ (+ refers to 100% < % activity < 125% at 1 or 10 μM)”. In addition, in the assay on ATF6 [2], the “ATF6 activity @ 1 μM- No Tg [%]” value was “+ (+ refers to 0% < % activity < 25% at 1 or 10 μM test compound)” and the “ATF6 activity @ 10 μM- No Tg [%]” value is “+ (+ refers to 0% < % activity < 25% at 1 or 10 μM test compound)”.
On to `CC(c1ccc(F)cc1F)n1cc(NC(=O)c2cc(-c3ccco3)on2)cn1` (single isomer, unassigned) [Compound 1-16, N-(1-(1-(2,4-difluorophenyl)ethyl)-1H-pyrazol-4-yl)-5-(furan-2-yl)isoxazole-3-carboxamide], for which, in the assay on ATF6 [1], the “ATF6 activity @ 10 μM [%]” value is “++ (++ refers to 125% < % activity < 150% at 1 or 10 μM test compound)” and the activity at 1 µM is 100 to 125%. Further, in the assay with ATF6 [2], the “ATF6 activity @ 1 μM- No Tg [%]” value is reported as “+ (+ refers to 0% < % activity < 25% at 1 or 10 μM test compound)” and the “ATF6 activity @ 10 μM- No Tg [%]” value is reported as “+ (+ refers to 0% < % activity < 25% at 1 or 10 μM test compound)”.
For the molecule `CC(c1ccc(F)cc1F)n1cc(NC(=O)c2cc(-c3ccco3)on2)cn1` (single isomer, unassigned) [Compound 1-17, N-(1-(1-(2,4-difluorophenyl)ethyl)-1H-pyrazol-4-yl)-5-(furan-2-yl)isoxazole-3-carboxamide], in the assay with ATF6 [1], the “ATF6 activity @ 1 μM [%]” value is “+ (+ refers to 100% < % activity < 125% at 1 or 10 μM)” and the “ATF6 activity @ 10 μM [%]” value is “+ (+ refers to 100% < % activity < 125% at 1 or 10 μM)”. Moreover, in the assay on ATF6 [2], the “ATF6 activity @ 1 μM- No Tg [%]” value was “+ (+ refers to 0% < % activity < 25% at 1 or 10 μM test compound)” and the “ATF6 activity @ 10 μM- No Tg [%]” value was “+ (+ refers to 0% < % activity < 25% at 1 or 10 μM test compound)”.
Take `CC(c1ccc(C(F)(F)F)cc1C(F)(F)F)n1cc(NC(=O)c2cc(-c3cnccn3)no2)cn1` (single isomer, unassigned) [Compound 1-25, N-(1-(1-(2,4-bis(trifluoromethyl)phenyl)ethyl)-1H-pyrazol-4-yl)-3-(pyrazin-2-yl)isoxazole-5-carboxamide]: in the assay on ATF6 [1], the “ATF6 activity @ 1 μM [%]” value is “- (- refers to 75% < % activity < 100% at 1 or 10 μM)” and the “ATF6 activity @ 10 μM [%]” value is “- (- refers to 75% < % activity < 100% at 1 or 10 μM)”.
Regarding `CC(c1ccc(C(F)(F)F)cc1C(F)(F)F)n1cc(NC(=O)c2cc(-c3cnccn3)no2)cn1` (single isomer, unassigned) [Compound 1-26, N-(1-(1-(2,4-bis(trifluoromethyl)phenyl)ethyl)-1H-pyrazol-4-yl)-3-(pyrazin-2-yl)isoxazole-5-carboxamide], in the assay with ATF6 [1], the “ATF6 activity @ 1 μM [%]” value was “--- (--- refers to <50% at 1 or 10 μM test compound)” and the “ATF6 activity @ 10 μM [%]” value is “--- (--- refers to <50% at 1 or 10 μM test compound)”.
Take `O=C(Nc1cnn(Cc2ccc(C(F)(F)F)cc2C(F)(F)F)c1)c1cc(-c2ccco2)on1` [Ceapin-A7, reference compound]: in the assay on ATF6 [1], the “ATF6 activity @ 1 μM [%]” value was “--- (--- refers to <50% at 1 or 10 μM test compound)” and the “ATF6 activity @ 10 μM [%]” value is “--- (--- refers to <50% at 1 or 10 μM test compound)”.
In the case of `CC(c1c(Cl)cccc1Cl)n1cc(NC(=O)c2cc(-c3ccco3)on2)cn1` (stereo not shown) [Compound 1-1, N-(1-(1-(2,6-dichlorophenyl)ethyl)-1H-pyrazol-4-yl)-5-(furan-2-yl)isoxazole-3-carboxamide], in the assay with ATF6 [2], the “ATF6 activity @ 1 μM- No Tg [%]” value is listed as “+ (+ refers to 0% < % activity < 25% at 1 or 10 μM test compound)” and the “ATF6 activity @ 10 μM- No Tg [%]” value was “+ (+ refers to 0% < % activity < 25% at 1 or 10 μM test compound)”.
Regarding `O=C(Nc1cnn(C2CCCc3ccccc32)c1)c1cc(-c2ccco2)on1` (stereo not shown) [Compound 1-3, 5-(furan-2-yl)-N-(1-(1,2,3,4-tetrahydronaphthalen-1-yl)-1H-pyrazol-4-yl)isoxazole-3-carboxamide], in the assay on ATF6 [1], the activity at 1 µM is 100 to 125% and the activity at 10 µM lay within 125 to 150%.
On the same counts, the results for `CC(c1c(F)cccc1Cl)n1cc(NC(=O)c2cc(-c3ccco3)on2)cn1` (stereo not shown) [Compound 1-4, N-(1-(1-(2-chloro-6-fluorophenyl)ethyl)-1H-pyrazol-4-yl)-5-(furan-2-yl)isoxazole-3-carboxamide] are over 150% and over 150%.
On the same counts, the results for `CC(c1ccc(F)cc1F)n1cc(NC(=O)c2cc(-c3ccco3)on2)cn1` (stereo not shown) [Compound 1-5, N-(1-(1-(2,4-difluorophenyl)ethyl)-1H-pyrazol-4-yl)-5-(furan-2-yl)isoxazole-3-carboxamide] are 100 to 125% and over 150%.
On the same counts, the results for `CC(c1ccc(F)cc1Cl)n1cc(NC(=O)c2cc(-c3ccco3)on2)cn1` (stereo not shown) [Compound 1-6, N-(1-(1-(2-chloro-4-fluorophenyl)ethyl)-1H-pyrazol-4-yl)-5-(furan-2-yl)isoxazole-3-carboxamide] are 100 to 125% and 75 to 100%.
With `CC(c1ccc(C(F)(F)F)cc1C(F)(F)F)n1cc(NC(=O)c2cc(-c3cnccn3)no2)cn1` (stereo not shown) [Compound 1-11, N-(1-(1-(2,4-bis(trifluoromethyl)phenyl)ethyl)-1H-pyrazol-4-yl)-3-(pyrazin-2-yl)isoxazole-5-carboxamide], in the assay on ATF6 [1], the activity at 1 µM fell in the range of 50 to 75% and the activity at 10 µM lay in the range of 50 to 75%.
As for `O=C(Nc1cnn(C2CCc3cc(C(F)(F)F)ccc32)c1)c1cc(-c2cnccn2)on1` (stereo not shown) [Compound 1-12, 5-(pyrazin-2-yl)-N-(1-(5-(trifluoromethyl)-2,3-dihydro-1H-inden-1-yl)-1H-pyrazol-4-yl)isoxazole-3-carboxamide], in the assay with ATF6 [1], the activity at 1 µM lay in the range of 75 to 100% and the activity at 10 µM fell in the range of 75 to 100%.
On to `CC(c1c(Cl)cccc1Cl)n1cc(NC(=O)c2cc(-c3cccs3)on2)cn1` (stereo not shown) [Compound 1-13, N-(1-(1-(2,6-dichlorophenyl)ethyl)-1H-pyrazol-4-yl)-5-(thiophen-2-yl)isoxazole-3-carboxamide], for which, in the assay with ATF6 [1], the activity at 1 µM lay in the range of 75 to 100% and the activity at 10 µM lay in the range of 100 to 125%. Besides, in the assay with ATF6 [2], the “ATF6 activity @ 1 μM- No Tg [%]” value is listed as “+ (+ refers to 0% < % activity < 25% at 1 or 10 μM test compound)” and the “ATF6 activity @ 10 μM- No Tg [%]” value is reported as “+ (+ refers to 0% < % activity < 25% at 1 or 10 μM test compound)”.
